# Measured values as given in US20210230131A1, “POLYAMINO BIARYL COMPOUNDS AND THEIR USE” (INSERM (INSTITUT NATIONAL DE LA SANTÉ ET DE LA RECHERCHE …, priority 2018, published 2021).
# Experiments:
# CTFα = test: APP carboxy-terminal fragment αCTF by Western blot in SY5Y-APP695WT cells; format: cell-based, human; conditions: CTFα increase compared to chloroquine ([CTF]compound/[CTF]CQ) at 3 μM; mean of at least three experiments
# Excerpt: (§1) Antibodies. Primary antibodies used in this study for western-blot analysis included a homemade rabbit antiserum against the last 17 amino acids of human APP protein sequence, named APP-Cter-C17 (1/5000 in TBS-M). Anti-β-actin (1/10 000 in TBS-M) was obtained from Sigma. Anti-LC3B (1/2000 in TBS-BSA) and anti-p62/SQSTM1 (1/2000 in TBS-M) antibodies were purchased from Cell Signaling Technology. Secondary antibodies (peroxidase-labeled goat anti-rabbit IgG, 1/5000 or peroxidase-labeled horse anti-mouse IgG, 1/50000 in TBS-T) were obtained from Vector Laboratories.
# (§2) Cell culture and treatment. The human neuroblastoma cell line SY5Y-APP^695WT was maintained in Dulbecco's modified Eagle medium (DMEM, high glucose, pyruvate—GIBCO by Life Technologies) supplemented with 10% foetal bovine serum, 2 mM L-glutamine, 1 mM non-essential amino acids and penicillin/streptomycin (GIBCO by Life Technologies) at 37° C. in a 5% CO2 humidified incubator. SY5Y-APP^695WT cells were maintained in 75 cm^2 culture flasks (Falcon) with supplemented DMEM medium until they reached 80% of confluence 24 h before treatment.
# (§3) For drug treatment, cells were plated at a rate of 5·10^5 cells per well into 12-well plates (Falcon) and cultured with 1 mL supplemented DMEM cell medium for 24 h before drug exposure. The following day, cell medium was replaced with fresh medium containing drugs diluted at the indicated concentrations. Cells were treated for 24 h. At the end of treatments, the cell medium was collected and kept at −80° C. until use for dosage. Then, cells were rinsed once with PBS and extracted in 100 μL of Laemmli buffer (10 mM Tris, 20% glycerol and 2% Sodium dodecyl sulfate) using a cell-scraper. The cell lysate was further sonicated (30 pulses of 0.5 s, 60 Hz) for 5 min. Total protein concentration was determined using the Pierce BCA Protein Assay Kit (Thermo scientific) according to the manufacturer's instructions. Samples were stored at −80° C. until analysis.
# (§4) Western Blot Analysis. Cell protein lysates were prepared for western-blot analysis by diluting the sample with 1 volume of NuPAGE® lithium dodecyl sulfate (LDS) 2× sample buffer supplemented with 20% NuPAGE® sample reducing agents (Invitrogen). Samples were heat 10 min at 100° C. 10 μg of total proteins per well were loaded onto a precast 4-12% Criterion XT Bis-Tris polyacrylamide gel (Bio-Rad) and electrophoresis was achieved after applying a tension of 150 V during 90 min using a Criterion electrophoresis Cell with the NuPAGE® MOPS SDS running buffer (1×). Proteins were transferred to a nitrocellulose membrane of […] pore size (G&E Healthcare) using the Criterion blotting system and applying a tension of 100 V for 45 min. To resolve proteins of low molecular weights such as carboxy-terminal fragments of APP, 12% Criterion XT Bis-Tris polyacrylamide gels (Bio-Rad) were used and electrophoresis was performed during 70 min at 150 V in a NuPAGE® MES SDS running buffer (1×). Proteins were transferred to a nitrocellulose membrane of 0.2 μm pore size (G&E Healthcare) at 100 V for 40 min. Molecular weights calibration was achieved using molecular weight markers (Novex and Magic Marks, Life Technologies). Protein transfer and quality were determined by a reversible Ponceau Red coloration (0.2% Xylidine Ponceau Red and 3% Trichloroacetic acid). Membranes were then blocked in 25 mM Tris-HCl pH 8.0, 150 mM NaCl, 0.1% Tween-20 (v/v) (TBS-T) and 5% (w/v) of skimmed milk (TBS-M) or 5% (w/v) of bovine serum albumin (TBS-BSA) depending on the antibody during 1 h. Membrane was rinsed three-times 10 min in TBS-T before incubation with the primary antibody overnight at 4° C. Membrane was rinsed 3 times 10 min with TBS-T and then incubated with the secondary antibody for 45 min at room temperature (RT). […] Quantifications of protein expression levels were performed with ImageJ Software (NIH). […]
# AICD = AICD by Western blot in SY5Y-APP695WT cells; format: cell-based, human; conditions: AICD increase compared to chloroquine ([AICD]compound/[AICD]CQ) at 3 μM; mean of at least three experiments
# Excerpt: as §1, §2, §3, §4
# Aβ1-42 peptide secretion = test: Quantification of secreted Aβ1-42 by ELISA in SY5Y-APP695WT cells; format: cell-based; conditions: Homo sapiens; concentration inhibiting 50% of Aβ1-42 peptide secretion in SY5Y cells; 24 h treatment; mean ± SD of at least two experiments in triplicate
# Description: Cell culture and treatment. The human neuroblastoma cell line […] was maintained in Dulbecco's modified Eagle medium (DMEM, high glucose, pyruvate-GIBCO by Life Technologies) supplemented with 10% foetal bovine serum, 2 mM L-glutamine, 1 mM non-essential amino acids and penicillin/streptomycin (GIBCO by Life Technologies) at 37° C. in a 5% CO2 humidified incubator. […] cells were maintained in 75 cm^2 culture flasks (Falcon) with supplemented DMEM medium until they reached 80% of confluence 24 h before treatment. For compounds treatment, a 10 mM stock solution was diluted in freshly supplemented DMEM medium to obtain the precise final concentration of drug. Bafilomycin A1 (BafA1), the vacuolar […] type H+ ATPase inhibitor, was purchased from Merck Millipore and was used at a final dilution of 100 nM. For drug treatment, cells were plated at a rate of 5·10^5 cells per well into 12-well plates (Falcon) and cultured with 1 mL supplemented DMEM cell medium for 24 h before drug exposure. The following day, cell medium was replaced with fresh medium containing drugs diluted at the indicated concentrations. Cells were treated for 24 h. At the end of treatments, the cell medium was collected and kept at -80° C. until use for dosage. Then, cells were rinsed once with PBS and extracted in 100 μL of Laemmli buffer (10 mM Tris, 20% glycerol and 2% Sodium dodecyl sulfate) using a cell-scraper. The cell lysate was further sonicated (30 pulses of 0.5 s, 60 Hz) for 5 min. Total protein concentration was determined using the Pierce BCA Protein Assay Kit (Thermo scientific) according to the manufacturer's instructions. Samples were stored at -80° C. until analysis. Quantification of secreted Aβ1-40/1-42 and sAPPα/sAPPβ. Conditioned media of […] collected at the end of treatments were centrifuged at 1000 g for 5 min to eliminate cells debris. Aβ1-40 and Aβ1-42 peptide concentrations in […] were determined using amyloid-beta 40 and 42 Human ELISA kits (Invitrogen) according to the manufacturer's instructions after 1:10 and 1:2 dilutions of supernatants in ELISA buffer, respectively. sAPPα and sAPPβ concentrations in ng/mL were determined using the sAPPα/sAPPβ kit (Meso Scale Diagnostics, MSD®) according to the manufacturer's instructions. Compounds of the invention (compounds 24-37, 41, 44 and 51-58) were evaluated for their ability to modulate APP processing on SY5Y human neuroblastoma cell line stably expressing the neuronal isoform of human wild-type APP695 (SYSY-APPwt). Aβ levels (Aβ1-40 and Aβ1-42) after treatment with reference and tested compounds were measured by ELISA (Table 2). […] APP carboxy-terminal fragments (αCTFs and AICD) were measured by Western blot and quantified. The effect of reference and tested compounds on αCTFs and AICD are expressed as the intensity of corresponding western-blot bands resulting from the secretase cleavages.
IC50 (Aβ1-42 peptide secretion) [µM],Compound,CTFα vs CQ (3 μM) (CTFα),AICD vs CQ (3 μM) (AICD)
3.4 ± 1.9,"CN(C)Cc1ccccc1-c1ccc(NCCCN2CCCCC2)c(OCCN2CCCCC2)c1 [Compound 30, 4-(2-[(Dimethylamino)methyl]phenyl)-2-[2-(piperidin-1-yl)ethoxy]-N-[3-(piperidin-1-yl)propyl]aniline]",6.4,3.6
2.8 ± 0.1,"CN(C)Cc1ccccc1-c1ccc(NCCCN2CCCCC2)c(OCCC2CCCCC2)c1 [Compound 31, 3-(2-cyclohexylethoxy)-2′-((dimethylamino)methyl)-N-(3-(piperidin-1-yl)propyl)-[1,1′-biphenyl]-4-amine]",0.1,0.1
